Experimental data from patent publication US4443436A, “C-20-Modified macrolide derivatives of the macrolide antibiotics tylosin, desmycosin, macrocin, and lactenocin” (Eli Lilly and Company, priority 1982, dated 1984).
In brackets after ≈: the same amount, converted by molar mass. Like-named read-outs stand apart in the source and are kept apart here.

Tests used:
[1] = tested on: Staphylococcus epidermidis EPI1; test: MIC, standard agar-dilution assay, Staphylococcus epidermidis EPI1; type: cell-based
[2] = tested on: Streptococcus pyogenes C203; test: MIC, standard agar-dilution assay, Streptococcus pyogenes C203; type: cell-based
Streptococcus bovis 80 = test: MIC, broth-dilution microtiter test, Streptococcus bovis 80; type: cell-based
Description: (§1) The MIC's in Table X were obtained using conventional broth-dilution microtiter tests.

[3] = tested on: Haemophilus influenzae R252; test: MIC, standard agar-dilution assay, Haemophilus influenzae R252; type: cell-based
[4] = tested on: Staphylococcus aureus V41; test: MIC, standard agar-dilution assay, Staphylococcus aureus V41; type: cell-based
[5] = tested on: Pasteurella multocida 17E; test: MIC, broth-dilution microtiter test, Pasteurella multocida 17E; type: cell-based; details: Pasteurella multocida 17E, bovine isolate, broth-dilution microtiter
Description: as §1

[6] = tested on: Streptococcus Group D X66; test: MIC, standard agar-dilution assay, Streptococcus Group D X66; type: cell-based
[7] = tested on: Staphylococcus aureus X1.1; test: MIC, standard agar-dilution assay, Staphylococcus aureus X1.1; type: cell-based
[8] = tested on: Streptococcus pyogenes C203; test: In vivo protection of mice experimentally infected with S. pyogenes C203; details: mice, doses given 1 and 4 hours post-infection; for ED50: Streptococcus pyogenes
Experimental: The C-20 modified derivatives of this invention have shown in vivo antimicrobial activity against experimentally-induced infections in laboratory animals. When two doses of test compound were administered to mice experimentally infected with S. pyogenes C203, the activity observed was measured as an ED50 value [effective dose in mg/kg to protect 50% of the test animals: see Warren Wick, et al., J. Bacteriol. 81, 233-235 (1961)].

Staphylococcus aureus = test: MIC, broth-dilution microtiter test, Staphylococcus aureus; type: cell-based
Description: as §1

[9] = tested on: Pasteurella multocida 60A; test: MIC, broth-dilution microtiter test, Pasteurella multocida 60A; type: cell-based
Description: as §1

Mycoplasma gallisepticum = test: MIC, broth-dilution microtiter test, Mycoplasma gallisepticum; type: cell-based
Description: as §1

Mycoplasma hyopneumoniae = test: MIC, broth-dilution microtiter test, Mycoplasma hyopneumoniae; type: cell-based
Description: as §1

Mycoplasma hyorhinis = test: MIC, broth-dilution microtiter test, Mycoplasma hyorhinis; type: cell-based; details: Mycoplasma hyorhinis, broth-dilution microtiter
Description: as §1

[10] = tested on: Haemophilus influenzae Holt; test: MIC, standard agar-dilution assay, Haemophilus influenzae Holt; type: cell-based; details: Haemophilus influenzae Holt; ampicillin-sensitive strain; agar dilution
[11] = tested on: Pasteurella hemolytica 22C; test: MIC, broth-dilution microtiter test, Pasteurella hemolytica 22C; type: cell-based; details: Pasteurella hemolytica 22C, broth-dilution microtiter
Description: as §1

[12] = tested on: Streptococcus pneumoniae Park I; test: microbe, parasite or virus in culture; type: cell-based
[13] = tested on: Staphylococcus epidermidis EPI2; test: MIC, standard agar-dilution assay, Staphylococcus epidermidis EPI2; type: cell-based
Streptococcus Group 9960 = test: MIC, standard agar-dilution assay, Streptococcus Group 9960; type: cell-based; details: Streptococcus Group 9960, agar dilution
[14] = tested on: Staphylococcus aureus X400; test: MIC, standard agar-dilution assay, Staphylococcus aureus X400; type: cell-based
[15] = tested on: Staphylococcus aureus S13E; test: MIC, standard agar-dilution assay, Staphylococcus aureus S13E; type: cell-based
Mycoplasma synoviae = test: MIC, broth-dilution microtiter test, Mycoplasma synoviae; type: cell-based; details: Mycoplasmopsis synoviae
Description: as §1

[16] = Staphylococcus epidermidis EPI1, agar dilution
[17] = Streptococcus pyogenes C203, agar dilution
[18] = Streptococcus bovis 80, broth-dilution microtiter
[19] = Haemophilus influenzae R252, ampicillin-resistant strain, agar dilution
[20] = Staphylococcus aureus V41, penicillin-resistant strain, agar dilution
[21] = Streptococcus Group D X66, agar dilution
[22] = Staphylococcus aureus X1.1, agar dilution
[23] = Pasteurella multocida 60A, avian isolate, broth-dilution microtiter
[24] = Mycoplasma gallisepticum, broth-dilution microtiter
[25] = Mycoplasma hyopneumoniae, broth-dilution microtiter
[26] = Streptococcus pneumoniae Park I, agar dilution
[27] = Staphylococcus epidermidis EPI2, agar dilution
[28] = Staphylococcus aureus X400, methicillin-resistant strain, agar dilution
[29] = Staphylococcus aureus S13E, agar dilution

CCC(=O)OC1C(OC2C(CCCl)CC(C)C(=O)C=CC(C)=CC(COC3OC(C)C(O)C(OC)C3OC)C(CC)OC(=O)CC(O)C2C)OC(C)C(O)C1N(C)C (stereo not drawn) [Compound 69, 20-DH-DO-20-Chloro-2'-O-propionyldesmycosin] showed an MIC [1, 16] of 0.25 µg/mL (≈ 0.295 µM), an MIC [2, 17] of 2 µg/mL (≈ 2.36 µM) and an MIC (Streptococcus bovis 80; [18]) of 6.25 µg/mL (≈ 7.37 µM). It also gave an MIC [3, 19] of 16 µg/mL (≈ 18.9 µM), an MIC [4, 20] of 0.25 µg/mL (≈ 0.295 µM) and an MIC [5] of 25 µg/mL (≈ 29.5 µM). For the same compound, the MIC [6, 21] was 8 µg/mL (≈ 9.43 µM), the MIC [7, 22] was 0.25 µg/mL (≈ 0.295 µM) and the “ED50, Oral” value ([8]; oral) was 27 mg/kg × 2. The “ED50, Subcutaneous” value ([8]; subcutaneous) was 3.3 mg/kg × 2, the MIC (Staphylococcus aureus; broth-dilution microtiter) was 0.78 µg/mL (≈ 0.919 µM) and the MIC [9, 23] was 2.5 µg/mL (≈ 2.95 µM). It also gave an MIC (Mycoplasma gallisepticum; [24]) of 0.39 µg/mL (≈ 0.46 µM), an MIC (Mycoplasma hyopneumoniae; [25]) of 12.5 µg/mL (≈ 14.7 µM) and an MIC (Mycoplasma hyorhinis) of 50 µg/mL (≈ 58.9 µM). The MIC [10] was 16 µg/mL (≈ 18.9 µM), the MIC [11] was 25 µg/mL (≈ 29.5 µM) and the MIC [12, 26] was 0.25 µg/mL (≈ 0.295 µM). The MIC [13, 27] was 0.12 µg/mL (≈ 0.141 µM), the MIC (Streptococcus Group 9960) was 8 µg/mL (≈ 9.43 µM) and the MIC [14, 28] was 0.5 µg/mL (≈ 0.589 µM). For the same compound, the MIC [15, 29] was 0.25 µg/mL (≈ 0.295 µM).
CCC(=O)OC1C(OC2C(CCN3C(=O)c4ccccc4C3=O)CC(C)C(=O)C=CC(C)=CC(COC3OC(C)C(O)C(OC)C3OC)C(CC)OC(=O)CC(O)C2C)OC(C)C(O)C1N(C)C (stereo not drawn) [Compound 65, 20-DH-DO-20-N-Phthalimido-2'-O-propionyldesmycosin] gave an MIC [1, 16] of 0.25 µg/mL (≈ 0.261 µM), an MIC [2, 17] of 0.5 µg/mL (≈ 0.521 µM) and an MIC (Streptococcus bovis 80; [18]) of 6.25 µg/mL (≈ 6.52 µM). For the same compound, the MIC [3, 19] was 32 µg/mL (≈ 33.4 µM), the MIC [4, 20] was 0.5 µg/mL (≈ 0.521 µM) and the MIC [5] was 25 µg/mL (≈ 26.1 µM). For the same compound, the MIC [6, 21] was 8 µg/mL (≈ 8.34 µM), the MIC [7, 22] was 0.5 µg/mL (≈ 0.521 µM) and the “ED50, Oral” value ([8]; oral) was 20 mg/kg × 2. The “ED50, Subcutaneous” value ([8]; subcutaneous) was 1.7 mg/kg × 2, the MIC (Staphylococcus aureus; broth-dilution microtiter) was 1.56 µg/mL (≈ 1.63 µM) and the MIC [9, 23] was 12.5 µg/mL (≈ 13 µM). For the same compound, the MIC (Mycoplasma gallisepticum; [24]) was < 0.05 µg/mL, the MIC (Mycoplasma hyopneumoniae; [25]) was 12.5 µg/mL (≈ 13 µM) and the MIC (Mycoplasma hyorhinis) was “-- (Not active at 50 mcg/ml, the highest level tested)”. For the same compound, the MIC [10] was 64 µg/mL (≈ 66.7 µM), the MIC [11] was 25 µg/mL (≈ 26.1 µM) and the MIC [12, 26] was 1 µg/mL (≈ 1.04 µM). It also gave an MIC (Streptococcus Group 9960) of 8 µg/mL (≈ 8.34 µM), an MIC [14, 28] of 0.5 µg/mL (≈ 0.521 µM) and an MIC [15, 29] of 0.5 µg/mL (≈ 0.521 µM).
For CCC1OC(=O)CC(O)C(C)C(OC2OC(C)C(O)C(N(C)C)C2O)C(CCOc2cccc(N(C)C)c2)CC(C)C(=O)C=CC(C)=CC1COC1OC(C)C(O)C(OC)C1OC (stereo not drawn) [Compound 39, 20-DH-20-O-[m-(N,N-Dimethylamino)phenyl]desmycosin], the MIC ([1]; Staphylococcus epidermidis, EPI1) was 0.5 µg/mL (≈ 0.56 µM), the MIC ([2]; Streptococcus pyogenes, C203) was 0.25 µg/mL (≈ 0.28 µM) and the MIC (Streptococcus bovis 80; Streptococcus equinus, 80) was 1.56 µg/mL (≈ 1.75 µM). It also gave an MIC ([3]; Haemophilus influenzae, R252) of 16 µg/mL (≈ 17.9 µM), an MIC ([4]; Staphylococcus aureus, V41) of 0.5 µg/mL (≈ 0.56 µM) and an MIC ([5]; read-out: MIC) of 25 µg/mL (≈ 28 µM). It also gave an MIC [6] of 4 µg/mL (≈ 4.48 µM), an MIC ([7]; Staphylococcus aureus, X1.1) of 0.5 µg/mL (≈ 0.56 µM) and an ED50 ([8]; C203, sc, subcutaneous, read-out: ED50, Subcutaneous) of 6.7 mg/kg. It also gave an ED50 ([8]; C203, oral, read-out: ED50, Oral) of 19 mg/kg, an MIC (Staphylococcus aureus) of 6.25 µg/mL (≈ 7 µM) and an MIC ([9]; Pasteurella multocida, 60A) of 12.5 µg/mL (≈ 14 µM). For the same compound, the MIC (Mycoplasma gallisepticum; Mycoplasmoides gallisepticum) was 1.56 µg/mL (≈ 1.75 µM), the MIC (Mycoplasma hyopneumoniae; Mesomycoplasma hyopneumoniae) was 6.25 µg/mL (≈ 7 µM) and the MIC (Mycoplasma hyorhinis; read-out: MIC) was 25 µg/mL (≈ 28 µM). For the same compound, the MIC ([11]; read-out: MIC) was > 50 µg/mL, the MIC ([12]; Streptococcus pneumoniae) was 1 µg/mL (≈ 1.12 µM) and the MIC ([13]; Staphylococcus epidermidis, EPI2) was 0.25 µg/mL (≈ 0.28 µM). The MIC (Mycoplasma synoviae) was 1.56 µg/mL (≈ 1.75 µM), the MIC (Streptococcus Group 9960; GROUP9960, read-out: MIC) was 8 µg/mL (≈ 8.96 µM) and the MIC ([14]; Staphylococcus aureus, X400) was 0.5 µg/mL (≈ 0.56 µM). It also gave an MIC ([15]; Staphylococcus aureus, S13E) of 0.5 µg/mL (≈ 0.56 µM).
CCC(=O)OC1C(C)OC(OC2C(CCN3C(=O)c4ccccc4C3=O)CC(C)C(=O)C=CC(C)=CC(COC3OC(C)C(O)C(OC)C3OC)C(CC)OC(=O)CC(O)C2C)C(OC(=O)CC)C1N(C)C (stereo not drawn) [Compound 66, 20-DH-DO-20-N-Phthalimido-2',4'-di-O-propionyldesmycosin] gave an MIC [1, 16] of 0.5 µg/mL (≈ 0.493 µM), an MIC [2, 17] of 2 µg/mL (≈ 1.97 µM) and an MIC (Streptococcus bovis 80; [18]) of 6.25 µg/mL (≈ 6.16 µM). It also gave an MIC [3, 19] of 64 µg/mL (≈ 63 µM), an MIC [4, 20] of 0.5 µg/mL (≈ 0.493 µM) and an MIC [5] of 25 µg/mL (≈ 24.6 µM). The MIC [6, 21] was 8 µg/mL (≈ 7.88 µM), the MIC [7, 22] was 0.5 µg/mL (≈ 0.493 µM) and the “ED50, Oral” value ([8]; oral) was 31 mg/kg × 2. For the same compound, the “ED50, Subcutaneous” value ([8]; subcutaneous) was > 6.3 mg/kg × 2, the MIC (Staphylococcus aureus; broth-dilution microtiter) was 0.78 µg/mL (≈ 0.768 µM) and the MIC [9, 23] was 25 µg/mL (≈ 24.6 µM). For the same compound, the MIC (Mycoplasma gallisepticum; [24]) was 0.09 µg/mL (≈ 0.0887 µM), the MIC (Mycoplasma hyopneumoniae; [25]) was 25 µg/mL (≈ 24.6 µM) and the MIC (Mycoplasma hyorhinis) was 50 µg/mL (≈ 49.3 µM). It also gave an MIC [10] of 64 µg/mL (≈ 63 µM), an MIC [11] of 25 µg/mL (≈ 24.6 µM) and an MIC [12, 26] of 0.5 µg/mL (≈ 0.493 µM). The MIC [13, 27] was 0.25 µg/mL (≈ 0.246 µM), the MIC (Streptococcus Group 9960) was 8 µg/mL (≈ 7.88 µM) and the MIC [14, 28] was 1 µg/mL (≈ 0.985 µM). It also gave an MIC [15, 29] of 0.5 µg/mL (≈ 0.493 µM).
